The values below come from article PMC10644720 (Frontiers in Pharmacology, 2023).

For one data set, the system named is NOXs. The data set is described as follows: NADPH oxidase (NOX) activity assay in platelet lysate. The class given is cell-based, human. The conditions noted are these: convulxin (5 ng/mL)- and collagen (10 μg/mL)-induced; VAS2870 10 μM. How it is done: MDA, SOD, GPx, and NADPH oxidase activity were measured as previously described ([Krotz et al., 2002]; [Paul et al., 2019]; [Pan et al., 2021]). After incubation and activation, the reaction was stopped by adding 10 mM EGTA. The platelets were pelleted by centrifugation at 20,000 × g for 10 min at 4°C and resuspended in Tyrode’s buffer with 0.1% phosphatase and protease inhibitors (Cat No. 04906837001, Roche Applied Science, Penzberg, Germany; Cat No. P-8340, Sigma, St. Louis, MO, United States). The platelets were disrupted by passing them 10 times through a 29-gauge needle, followed by centrifugation at 2000 × g for 10 min at 4°C to separate the supernatant and precipitate. The detection of MDA, SOD, and GPx in the supernatant was performed according to the kit’s instructions for SOD (Cat No. BC0170, Solarbio Life Science, Beijing, China), MDA (Cat No. S0131S, Beyotime Institute of Biotechnology, Shanghai, China) and GPx (Cat No. S0056, Beyotime Institute of Biotechnology, Shanghai, China). In order to determine NADPH oxidase (NOX) activity, platelet lysate (12.5 μg) was incubated with 10 µM lucigenin and 0.5 mM NADPH at 37°C in the dark. The absorbance values were detected at 450 nm using a spectrophotometer Multiskan FC (ThermoFisher Scientific Inc., Waltham, MA, United States). Protein content was determined by the Bradford method.

In a further data set the test system is integrin αIIbβ3. The data set is described as follows: PAC-1 expression (integrin αIIbβ3 activation) by flow cytometry. The class given is cell-based, human. The following applies: collagen- and convulxin-induced. The method, then:
Platelet membrane protein expression experiments were performed as previously reported, with slight modifications ([Babur et al., 2020]). WPs were added with 10 μM indomethacin to prevent platelet aggregation. After incubation, the WPs were activated by adding 1 mM calcium chloride and agonists to platelets at 37°C. After 30 min, 10 μL of WPs was taken, and the reaction was terminated by adding 90 μL Tyrode’s buffer and 10 mM EDTA. PerCP-coupled anti-CD61 antibody (1:50; Cat No. 336410; Biolegend, San Diego, CA, United States), Alexa Fluor® 647 labeled PAC-1 (1:50; Cat No. 362806; BioLegend), and FITC-coupled anti-CD62p antibody (1:50; Cat No. 555523; BD Biosciences, San Diego, CA, United States) were incubated with platelets for 30 min at 37°C in the dark. The platelet surface fluorescence intensity was analyzed using a FacsCanto II flow cytometer (BD Biosciences, San Diego, CA, United States) to analyze the expression of platelet surface membrane proteins. Cell membrane protein expression data were analyzed using FlowJo software V10.
(Flow cytometry measures light scatter and fluorescence of single cells or particles in a stream.)

Data set [1] deals with human washed platelets. Description: Platelet intracellular Ca2+ release assay (Fluo-3AM). The class given is cell-based. The following applies: collagen (10 μg/mL)- and convulxin (5 ng/mL)-induced. The method, then: The assay was performed as previously reported with minor modifications ([Arthur et al., 2012]; [Ye et al., 2020]). Briefly, WPs (500 × 10^9/L) were labeled with 5 μM Fluo-3AM (Cat No. IF0150; Solarbio) or 10 μM DCFH-DA (Cat No. D6883; Sigma, St. Louis, MO, United States) at 37°C for 30 min protected from light. […] In addition, 1 mM CaCl2 and collagen or convulxin were added to start the reaction. Ca^2+ release and ROS production were analyzed using a Fluoroskan Ascent fluorometer (Thermo Fisher, Waltham, Massachusetts, US) at excitation (ex)/emission (em) = 490/530 nm, and the curves were plotted in real-time.

Data set [2] deals with human washed platelets. Description: Clot retraction experiment. The conditions noted are these: luteolin 100 μM; 0.1 U/mL thrombin. It counts as cell-based. How it is done: Clot retraction experiments were completed using the previously reported method ([Zhang et al., 2015]). […] Then, 200 μL of WPs were placed in a siliconized glass tube with 1 mM CaCl2, 0.1 U/mL thrombin, and 10 µL PPP, mixed well, and left at 37°C. Pictures were taken every 5 min. The clot size was calculated using ImageJ software.

The target in data set [3] is T1, Recombinant human GPVI protein (Homo sapiens, UniProt Q9HCN6).
T1 construct: purchased MedChemExpress HY-P70180
T1 sequence (Q9HCN6 21-267 limits assumed): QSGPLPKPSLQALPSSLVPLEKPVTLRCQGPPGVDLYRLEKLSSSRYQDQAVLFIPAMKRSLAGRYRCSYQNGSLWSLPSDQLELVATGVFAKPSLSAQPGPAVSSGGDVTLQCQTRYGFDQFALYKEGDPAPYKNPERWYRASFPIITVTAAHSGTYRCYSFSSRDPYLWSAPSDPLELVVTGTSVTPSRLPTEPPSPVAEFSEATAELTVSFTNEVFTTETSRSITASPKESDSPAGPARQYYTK
Description: Surface plasmon resonance (SPR). The conditions noted are these: Biacore S200, 25°C, 1:1 binding model. The method, then: The SPR experiment was performed on a Biacore S200 instrument (GE Healthcare; Uppsala, Sweden) at 25°C. Recombinant human GPVI protein, rhGPVI (Cat. HY-P70180; MedChemExpress), was immobilized at the level of 4,400 response units, with 10 mM sodium acetate buffer (pH 4.5) on a Series S CM5 Sensor Chip (Cat. 29104988; cytiva) at the concentration of 50 μg/mL.
For orientation: SPR reads the build-up and loss of mass on a sensor chip optically.

The nature of another data set: Tail bleeding in mice. It counts as in vivo, C57BL/6 mice. The conditions noted are these: luteolin 35 μM/kg or aspirin i.p., 30 min after injection; vs DMSO. The method, then: The tail break hemorrhage experiment in mice was performed as previously reported, with slight modifications ([Liu et al., 2012]). […] Before the experiment, the mouse tails were immersed in saline for 3 min at 37°C. Then, 30 min after injection, the tails were quickly cut off using a surgical knife blade and placed in saline at 37°C. The cutting site was 5 mm from the end of the tail tip. The bleeding time of the broken tails was observed and recorded.

Another data set has as its system human platelets. The following applies: cited from earlier work.
The test system of data set [4] is thrombosis and infarct area. On the set-up: method as in Liu et al., 2022. The conditions noted are these: rats; gavage for 7 days at 20 mg/kg/day; ref Liu et al., 2022; cited from earlier work.
A further data set relates to thrombin. On the set-up: method as in Choi et al. (2015). The following applies: ref Choi et al. (2015); cited from earlier work.

What is called Kd is the constant that tells how readily two partners part at equilibrium. In general, IC50 refers to the point on the concentration scale where inhibition reaches its midpoint.

The structures appear in SMILES notation.

As for `O=c1cc(-c2ccc(O)c(O)c2)oc2cc(O)cc(O)c12` [Luteolin], the NOXs activity entry in the data set with NOXs is recorded as “significantly decreased”. Also, the “PAC-1 expression (integrin αIIbβ3 inside-out activation)” value in the data set with integrin αIIbβ3 is recorded as “dose-dependently inhibited”. For the same compound, the platelet calcium release entry with human washed platelets [1] was “dose-dependently inhibited”. Further, the thrombin-induced clot retraction result in the data set on human washed platelets [2] is given as “inhibited”. In addition, in data set [3], the K a was 7,227 m^−1s^−1, the K d turned out to be 0.03 s⁻¹ and the Kd was 4.13 µM. The tail bleeding time result in the data set “Tail bleeding in mice” is recorded as “no significant prolonging effect”. In addition, in the data set on human platelets (2 μM U46619, ref Guerrero et al., 2005, read-out: IC50, inhibition of U46619-induced platelet aggregation), the IC50 is 47 ± 13.3 µM. Also, the “ADP induced platelet aggregation” value in the data set with human platelets (25–100 μM luteolin, 1 h incubation, ref Lu et al., 2021) is on record as “inhibited”. The “collagen, U46619, and ADP-induced activation in human platelets” value in the data set with human platelets (ref Guerrero et al., 2005, Guerrero et al., 2007, Lu et al., 2021) is on record as “significantly inhibits”. For the same compound, in data set [4], the “thrombosis and infarct area” value is “significantly reduce”. Further, the thrombin activity result in the data set on thrombin was “effectively inhibits”.
